Source: ChEMBL document CHEMBL3046822, “Synthesis, antiplatelet aggregation activity, and molecular modeling study of novel substituted-piperazine analogues” (2011)
Activity calls are given as the source filed them. The calls are words filed in the database; no cut-off is given here.

Assays:
[1] = Antiaggregating activity in Homo sapiens (human) platelet rich plasma assessed as ristocetin-induced platelet aggregation at 4 uM incubated for 4 min prior to ristocetin-induction measured for 5.5 min by turbidometric analysis (reference value: 65 to 99%); type: functional
[2] = Antiaggregating activity in Homo sapiens (human) platelet rich plasma assessed as disaggregation of ADP-induced platelet aggregation at 5 uM incubated for 4 min prior to ADP-induction measured for 5.5 min by turbidometric analysis relative to control; type: functional
[3] = system: Platelet; assay: Antiaggregating activity in Homo sapiens (human) platelet rich plasma assessed as inhibition of adrenaline-induced platelet aggregation at 5 uM incubated for 4 min prior to adrenaline-induction measured for 5.5 min by turbidometric analysis; type: functional, cell-free
[4] = system: Platelet; assay: Antiaggregating activity in Homo sapiens (human) platelet rich plasma assessed as inhibition of arachidonic acid-induced platelet aggregation at 10 uM incubated for 4 min prior to arachidonic acid-induction measured for 5.5 min by turbidometric analysis; type: functional, cell-free
[5] = system: Platelet; assay: Antiaggregating activity in Homo sapiens (human) platelet rich plasma assessed as inhibition of arachidonic acid-induced platelet aggregation at 4 uM incubated for 4 min prior to arachidonic acid-induction measured for 5.5 min by turbidometric analysis; type: functional, cell-free
[6] = system: Platelet; assay: Antiaggregating activity in Homo sapiens (human) platelet rich plasma assessed as inhibition of adrenaline-induced platelet aggregation at 10 uM incubated for 4 min prior to adrenaline-induction measured for 5.5 min by turbidometric analysis; type: functional, cell-free
[7] = system: Platelet; assay: Antiaggregating activity in Homo sapiens (human) platelet rich plasma assessed as inhibition of collagen-induced platelet aggregation at 4 uM incubated for 4 min prior to collagen-induction measured for 5.5 min by turbidometric analysis; type: functional, cell-free
[8] = system: Platelet; assay: Antiaggregating activity in Homo sapiens (human) platelet rich plasma assessed as inhibition of arachidonic acid-induced platelet aggregation at 5 uM incubated for 4 min prior to arachidonic acid-induction measured for 5.5 min by turbidometric analysis; type: functional, cell-free
[9] = system: Platelet; assay: Antiaggregating activity in Homo sapiens (human) platelet rich plasma assessed as inhibition of ADP-induced platelet aggregation at 10 uM incubated for 4 min prior to ADP-induction measured for 5.5 min by turbidometric analysis; type: functional, cell-free
[10] = system: Platelet; assay: Antiaggregating activity in Homo sapiens (human) platelet rich plasma assessed as inhibition of collagen-induced platelet aggregation at 10 uM incubated for 4 min prior to collagen-induction measured for 5.5 min by turbidometric analysis; type: functional, cell-free
[11] = Antiaggregating activity in Homo sapiens (human) platelet rich plasma assessed as ristocetin-induced platelet aggregation at 10 uM incubated for 4 min prior to ristocetin-induction measured for 5.5 min by turbidometric analysis (reference value: 65 to 99%); type: functional
[12] = Antiaggregating activity in Homo sapiens (human) platelet rich plasma assessed as ristocetin-induced platelet aggregation at 5 uM incubated for 4 min prior to ristocetin-induction measured for 5.5 min by turbidometric analysis (reference value: 65 to 99%); type: functional
[13] = system: Platelet; assay: Antiaggregating activity in Homo sapiens (human) platelet rich plasma assessed as inhibition of adrenaline-induced platelet aggregation at 4 uM incubated for 4 min prior to adrenaline-induction measured for 5.5 min by turbidometric analysis; type: functional, cell-free
[14] = system: Platelet; assay: Antiaggregating activity in Homo sapiens (human) platelet rich plasma assessed as inhibition of collagen-induced platelet aggregation at 5 uM incubated for 4 min prior to collagen-induction measured for 5.5 min by turbidometric analysis; type: functional, cell-free
[15] = Antiaggregating activity in Homo sapiens (human) platelet rich plasma assessed as disaggregation of ADP-induced platelet aggregation at 4 uM incubated for 4 min prior to ADP-induction measured for 5.5 min by turbidometric analysis relative to control; type: functional
[16] = Antiaggregating activity in Homo sapiens (human) platelet rich plasma assessed as adrenaline-induced platelet aggregation at 2.5 uM incubated for 4 min prior to adrenaline-induction measured for 5.5 min by turbidometric analysis (reference value: 65 to 100%); type: functional
[17] = Antiaggregating activity in Homo sapiens (human) platelet rich plasma assessed as arachidonic acid-induced platelet aggregation at 0.6 uM incubated for 4 min prior to arachidonic acid-induction measured for 5.5 min by turbidometric analysis (reference value: 55 to 100%); type: functional
[18] = Antiaggregating activity in Homo sapiens (human) platelet rich plasma assessed as adrenaline-induced platelet aggregation at 1 uM incubated for 4 min prior to adrenaline-induction measured for 5.5 min by turbidometric analysis (reference value: 65 to 100%); type: functional
[19] = Antiaggregating activity in Homo sapiens (human) platelet rich plasma assessed as collagen-induced platelet aggregation at 2.5 uM incubated for 4 min prior to collagen-induction measured for 5.5 min by turbidometric analysis (reference value: 50 to 98%); type: functional
[20] = Antiaggregating activity in Homo sapiens (human) platelet rich plasma assessed as ristocetin-induced platelet aggregation at 1 uM incubated for 4 min prior to ristocetin-induction measured for 5.5 min by turbidometric analysis (reference value: 65 to 99%); type: functional
[21] = system: Platelet; assay: Antiaggregating activity in Homo sapiens (human) platelet rich plasma assessed as inhibition of ristocetin-induced platelet aggregation at 2.5 uM incubated for 4 min prior to ristocetin-induction measured for 5.5 min by turbidometric analysis; type: functional, cell-free
[22] = Antiaggregating activity in Homo sapiens (human) platelet rich plasma assessed as ADP-induced platelet aggregation at 1 uM incubated for 4 min prior to ADP-induction measured for 5.5 min by turbidometric analysis (reference value: 54 to 88%); type: functional
[23] = Antiaggregating activity in Homo sapiens (human) platelet rich plasma assessed as arachidonic acid-induced platelet aggregation at 1 uM incubated for 4 min prior to arachidonic acid-induction measured for 5.5 min by turbidometric analysis (reference value: 55 to 100%); type: functional
[24] = Antiaggregating activity in Homo sapiens (human) platelet rich plasma assessed as ADP-induced platelet aggregation at 2.5 uM incubated for 4 min prior to ADP-induction measured for 5.5 min by turbidometric analysis (reference value: 54 to 88%); type: functional
[25] = Antiaggregating activity in Homo sapiens (human) platelet rich plasma assessed as collagen-induced platelet aggregation at 1 uM incubated for 4 min prior to collagen-induction measured for 5.5 min by turbidometric analysis (reference value: 50 to 98%); type: functional

O=C(c1ccc[n+](Cc2ccc(F)cc2)c1)N1CCN(c2ccccc2Cl)CC1.[Cl-]
Activity [1]: 88% | Activity [2]: 40% | inhibition [3]: Active | inhibition [4]: Active | inhibition [5]: Active | inhibition [6]: Active | inhibition [7]: Active | inhibition [8]: Active | inhibition [9]: Active | inhibition [10]: Active | Activity [11]: 24% | Activity [12]: 87% | inhibition [13]: Active | inhibition [14]: Active | Activity [15]: 60%

O=C(c1ccc[n+](Cc2ccccc2)c1)N1CCN(c2ccccc2Cl)CC1.[Cl-]
Activity [16]: 12% | Activity [17]: 53% | Activity [18]: 75% | Activity [19]: 82% | Activity [20]: 89% | inhibition [21]: Active | Activity [22]: 83% | Activity [23]: 67% | Activity [24]: 83% | Activity [25]: 80%
